Test results taken from PubChem BioAssay AID493102 (Broad Institute, 2011).

System: SK-MEL-5 TRPM1-promoter luciferase reporter, 24 h
Assay: reducers of TRPM1 reporter luminescence, concentration series – cell-based, SK-MEL-5, cherry-picked, set 4, MITF inhibitor project, dose response (AID 493102);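 further: actives lower the luciferase signal so the potency reflects inhibition of reporter expression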

Row | Structure (SMILES) | AC50 [µM]
1 | O=C(N/N=C/c1ccccn1)c1cc([N+](=O)[O-])cc([N+](=O)[O-])c1 | 6.53
2 | O=C(Nc1ccc(OC(F)(F)F)cc1)c1[nH]ncc1[N+](=O)[O-] | 0.601
3 | CCCC(=O)N1CCN(c2ccc(NC(=O)c3ccc([N+](=O)[O-])o3)cc2Cl)CC1 | 7.65
4 | COc1cc(C2C(C#N)=C(N)Oc3cc(N(C)C)ccc32)cc2c1OCO2 (stereo unspecified) | 0.601
5 | C1CCC(C(CC2CCCCN2)C2CCCCC2)CC1 (stereo unspecified) | 18.8
6 | Cc1ccc(NC(=O)CN(C)C(=O)Cn2ncc(Cl)c(Cl)c2=O)cc1 | 9.16
7 | CCN1/C(=C/c2cc[n+](C)cc2)C=Cc2cc(C)ccc21 | 1.74
8 | CC[n+]1c(/C=C/N(C)c2ccccc2)sc2ccc(Cl)cc21 | 9.07
9 | Cc1cc(C(=O)Nc2cccc(C(=O)O)c2)oc1C | 4.35
10 | CCOC(=O)c1ccc(NC(=O)c2ccc(C)c(S(=O)(=O)N3CCOCC3)c2)cc1 | 5.36
11 | Nc1ccc2c(c1)OC1(CCCC1)O2 | 11.2
12 | OCCNc1c2ccccc2nc2c(F)c(F)c(F)c(F)c12 | 4.14
13 | Cc1cc(C)cc(NC(=O)c2ccc([N+](=O)[O-])o2)c1 | 16.6
14 | O=C(COC(=O)c1ccc(F)c([N+](=O)[O-])c1)NC(=O)NCc1ccccc1 | 13.6
15 | COc1ccccc1OCCN1CSC(=S)N(C)C1 | 12.2
16 | Nc1ccc(-c2nc3ccc(C(=O)O)cc3s2)cc1 | 0.866
17 | C/C(=C\c1ccc(N(C)C)cc1)[N+](=O)[O-] | 13.1
18 | Cc1nc(C)c(C(=O)N/N=C/c2cc(Br)ccc2O)s1 | 3.66
19 | O=C(Cn1ncc(Cl)c(Cl)c1=O)NCC1CCCCC1 | 7.39
20 | Cc1ccc(S(=O)(=O)CC(CN2CCCCC2)N2CCCCC2)cc1 (stereo unspecified) | 8.1
21 | Cc1cccc(N2C(=O)NC(=O)/C(=C\C=C\c3ccco3)C2=O)c1 | 5.75
22 | Cc1[nH]c2ccccc2c1C(=O)CCl | 6.78
23 | O=C(Nc1nc(-c2ccccn2)cs1)c1ccc(F)c(S(=O)(=O)N2CCOCC2)c1 | 5.7

Row | Structure (SMILES) | AC50 [µM]
24 | COc1ccc2nc(C)cc(NCc3cccc(C(F)(F)F)c3)c2c1 | 18.2
25 | O=C(Nc1ccc(F)cc1)c1nc(S(=O)(=O)Cc2ccccc2)ncc1Cl | 9.45
26 | COCCN(C(=O)CCl)C(C(=O)NC1CCCCC1)c1ccccc1C (stereo unspecified) | 17.8
27 | Cc1ccc(C)c(C(=O)Cn2ncc(Cl)c(Cl)c2=O)c1 | 14.5
28 | COc1ccc(C(=O)/C=C/C(=O)N(CC(=O)NC2CCCCC2)Cc2ccccc2OC)c(O)c1 | 4.04
29 | CCCCCCN1C=CC(=C2C(=O)c3ccccc3C2=O)C=C1 | 3.86
30 | COc1ccc(C(=O)C(CN2CCOCC2)c2ccccc2)cc1 (stereo unspecified) | 7.29
31 | O=C(COC(=O)c1ccc[nH]c1=O)Nc1ccc(N2CCCCC2)cc1 | 1.03
32 | O=C(N/N=C/c1cccc2cccnc12)c1ccccc1O | 24.8
33 | Cc1cccc(N2C(=O)NC(=O)/C(=C\c3cccn3-c3ccc(Cl)cc3)C2=O)c1 | 8.91
34 | O=C(Nc1ccccc1N1CCOCC1)c1ccc([N+](=O)[O-])o1 | 11.9
35 | COc1ccc(N(Cc2cc(=O)[nH]c3ccccc23)C(=O)CCl)cc1 | 10.9
36 | N#C/C(=C\C=C\c1ccccc1[N+](=O)[O-])C(=O)NCc1ccccc1 | 14.7
37 | Oc1c(CN2CCCCC2)cc(COCc2ccccc2)c2cccnc12 | 2.17
38 | COc1cc2c(c(OC)c1OC)-c1ccc(OC)c(=O)cc1C(NC(C)=O)CC2 (stereo unspecified) | 0.056
39 | Cc1cccc2sc(N(CCCN(C)C)C(=O)c3nc4ccccc4s3)nc12 | 10.9
40 | COc1cccc(NC(=O)Nc2cccc(C(=O)O)c2)c1 | 2.37
41 | O=C(Nc1ccccc1)NN(C(=O)CCl)c1ccccc1 | 8.5
42 | Cn1c(/C=C/c2cccc([N+](=O)[O-])c2)c([N+](=O)[O-])c(=O)n(C)c1=O | 27.8
43 | Cc1c(Cl)c([N+](=O)[O-])nn1Cc1ccc(C(=O)N/N=C\c2cc(Cl)ccc2O)o1 | 3.47
44 | CC(C)(C)C(=O)Nc1cc2nn(-c3ccccc3)nc2cc1Cl | 0.495
45 | O=C(N/N=C/c1cc(Cl)ccc1O)c1ccncc1 | 8.98
46 | O=C1NC(=O)N(Cc2ccccc2)C(=O)/C1=C\C=C\c1ccco1 | 6.29
